Test results as given in patent US20080261994A1, “CYCLOPROPANE COMPOUNDS AND PHARMACEUTICAL USE THEREOF” (Japan Tobacco Inc., priority 2003, published 2008).
Like-named read-outs stand apart in the source and are kept apart here.

Key:
Type in all cases: biochemical
MMP-1 = molecular target: T1, MMP-1 (Homo sapiens, UniProt P03956); assay: MMP-1 inhibitory action (Type I collagen Activity Measurement kit, FITC-labeled collagen type I)
T1 sequence (P03956 100-469): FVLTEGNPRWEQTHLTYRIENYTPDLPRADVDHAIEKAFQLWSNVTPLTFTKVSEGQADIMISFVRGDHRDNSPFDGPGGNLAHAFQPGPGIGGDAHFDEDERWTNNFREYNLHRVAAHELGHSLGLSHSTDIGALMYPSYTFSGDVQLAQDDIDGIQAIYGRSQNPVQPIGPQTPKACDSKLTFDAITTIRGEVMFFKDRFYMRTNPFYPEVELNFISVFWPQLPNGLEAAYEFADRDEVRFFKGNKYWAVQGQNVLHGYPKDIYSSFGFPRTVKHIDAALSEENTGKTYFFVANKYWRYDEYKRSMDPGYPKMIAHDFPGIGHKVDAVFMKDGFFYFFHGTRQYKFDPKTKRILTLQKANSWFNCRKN

Recombinant Human MMP-13 = molecular target: T2, Recombinant Human MMP-13 (Homo sapiens, UniProt P45452); assay: MMP-13 inhibitory activity (MMP-13 specific fluorescent substrate with quencher)
T2 construct: purchased R&D systems 511-MM
How it was run: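 Recombinant human MMP-13 with test compound, reaction started with quenched fluorogenic peptide 7-MCA-Pro-CHA-Gly-NVal-His-Ala-DPA in Tris-HCl buffer, 1 h at 25 °C, stopped with acetic acid. Fluorescence at Ex 325/Em 405 nm; % inhibition versus enzyme-free and inhibitor-free wells, reported as IC50 (μM).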

aggrecanase-1 = molecular target: T3, aggrecanase-1 (Homo sapiens, UniProt O75173); assay: Aggrecanase-1 inhibitory action (Particle Assay, GAG release from aggrecan-containing polyacrylamide particles)
T3 sequence (O75173 213-837): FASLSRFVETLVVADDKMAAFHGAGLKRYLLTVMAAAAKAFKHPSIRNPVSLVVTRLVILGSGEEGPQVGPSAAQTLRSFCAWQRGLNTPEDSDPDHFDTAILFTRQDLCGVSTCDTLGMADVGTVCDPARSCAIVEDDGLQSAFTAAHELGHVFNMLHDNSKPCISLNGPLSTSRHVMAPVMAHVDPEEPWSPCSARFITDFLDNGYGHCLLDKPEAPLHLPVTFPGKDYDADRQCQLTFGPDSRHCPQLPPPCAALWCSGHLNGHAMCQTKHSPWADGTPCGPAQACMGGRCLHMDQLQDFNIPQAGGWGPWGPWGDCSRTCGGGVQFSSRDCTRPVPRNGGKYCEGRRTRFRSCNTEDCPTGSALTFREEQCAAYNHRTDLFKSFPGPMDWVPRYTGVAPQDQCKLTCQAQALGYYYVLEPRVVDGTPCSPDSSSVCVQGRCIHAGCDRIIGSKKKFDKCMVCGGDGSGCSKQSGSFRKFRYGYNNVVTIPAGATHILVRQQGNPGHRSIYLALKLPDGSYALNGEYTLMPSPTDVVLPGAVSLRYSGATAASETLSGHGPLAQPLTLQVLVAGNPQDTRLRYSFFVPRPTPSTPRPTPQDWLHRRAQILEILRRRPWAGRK
How it was run: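 Enzyme and compound incubated with aggrecan-containing polyacrylamide particles in Tris-HCl buffer at 37° C for 15 h. Released GAG in supernatant measured with 1,9-dimethylmethylene blue at 595 nm against chondroitin sulfate standard; % inhibition from enzyme-free and inhibitor-free wells, reported as TC50 (μM).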

[1] = MMP-1 inhibitory action, FITC-labeled collagen type I, 37° C. for 3 hr, read-out: IC50 MMP1 (Experimental Example 2)
[2] = Recombinant Human MMP-13, fluorescent substrate, 25° C. for 1 h, read-out: IC50 MMP13 (Experimental Example 3)
[3] = aggrecanase-1 inhibitory action, read-out: IC50 AG1 (Experimental Example 1)
[4] = Experimental Example 2, read-out: IC50 MMP1
[5] = Experimental Example 3, read-out: IC50 MMP13
[6] = Experimental Example 1, read-out: IC50 AG1

Row | SMILES | IC50 (MMP-1; [1]) [nM] | IC50 (Recombinant Human MMP-13; [2]) [nM] | IC50 (aggrecanase-1; [3]) [nM] | IC50 (MMP-1; [4]) [nM] | IC50 (Recombinant Human MMP-13; [5]) [nM] | IC50 (aggrecanase-1; [6]) [nM]
1 | CN(Cc1cccnc1)c1cccc([C@H]2C[C@@]2(NS(=O)(=O)c2ccc(-c3ccc(Cl)cc3)s2)C(=O)O)c1 [Example 2-183] | ≥ 1000 | < 100 | < 100 |  |  | 
2 | O=C(O)[C@@]1(NS(=O)(=O)c2ccc(-c3ccc(Cl)cc3)s2)C[C@H]1c1ccccc1 [Example 2-192] | ≥ 10000 | < 1000 | < 1000 |  |  | 
3 | CC1[C@H](c2ccccc2)[C@]1(NS(=O)(=O)N1CCN(c2nc3ccccc3s2)CC1)C(=O)O (stereo partly drawn) [Example 2-463] |  |  |  | ≥ 10000 | ≥ 1000 | ≥ 1000
4 | O=C(O)[C@]1(NS(=O)(=O)/C=C/c2ccc(C(F)(F)F)cc2)C[C@@H]1c1ccccc1 [Example 2-161] | ≥ 10000 | ≥ 1000 | ≥ 10000 |  |  | 
5 | O=C(NO)C1(NS(=O)(=O)c2ccc(OCc3ccc(Cl)cc3Cl)cc2)C2CCc3ccccc3C21 (stereo not drawn) [Example 2-360] |  |  |  | ≥ 10000 | < 1000 | < 100
6 | CN1CCN(C(=O)CCc2cccc(C3CC3(NS(=O)(=O)c3ccc(-c4cc(C(F)(F)F)on4)s3)C(=O)O)c2)CC1 (stereo not drawn) [Example 2-235] | ≥ 1000 | < 100 | < 1000 |  |  | 
7 | COCC(=O)NCC1(c2ccccc2)CC1(NS(=O)(=O)c1ccc(-c2ccc(Cl)cc2)s1)C(=O)O (stereo not drawn) [Example 2-398] |  |  |  | ≥ 10000 | < 1000 | < 1000
8 | CC1C(c2ccccc2)C1(NS(=O)(=O)c1ccc(-c2cccc(O)c2)s1)C(=O)O (stereo not drawn) [Example 2-509] |  |  |  | ≥ 1000 | < 100 | < 1000
9 | O=C(O)C1(NS(=O)(=O)c2ccc(-c3cc(C(F)(F)F)on3)s2)CC1(CN1CCCCC1)c1ccccc1 (stereo not drawn) [Example 2-330] |  |  |  | ≥ 10000 | ≥ 1000 | ≥ 1000
10 | CC(C)C(=O)NCCCC1(c2ccccc2)CC1(NS(=O)(=O)c1ccc(-c2ccc(Cl)cc2)s1)C(=O)O (stereo not drawn) [Example 2-319] |  |  |  | ≥ 1000 | < 100 | < 100
11 | O=C(O)C1(NS(=O)(=O)c2ccc(-c3ccc(Cl)cc3)cc2)CC1c1cccc(NCc2cccnc2)c1 (stereo not drawn) [Example 1-3] | ≥ 1000 | < 100 | < 100 |  |  | 
12 | C[C@]1(c2ccccc2)C[C@@]1(NS(=O)(=O)c1ccc(-c2ccc(Cl)cc2F)s1)C(=O)O [Example 2-406] |  |  |  | < 1000 | < 100 | < 100
13 | O=C(O)C1(NS(=O)(=O)c2ccc(-c3ccc(Cl)cc3)s2)CC1c1cccc(OCc2ccccc2)c1 (stereo not drawn) [Example 2-36] | ≥ 10000 | < 1000 | < 1000 |  |  | 
14 | Cc1cc(C2CC2(NS(=O)(=O)c2ccc(-c3cc(C(F)(F)F)on3)s2)C(=O)O)no1 (stereo not drawn) [Example 2-314] |  |  |  | ≥ 10000 | ≥ 10000 | ≥ 1000
15 | O=C(OCCCc1ccccc1C1CC1(NS(=O)(=O)c1ccc(-c2cc(C(F)(F)F)on2)s1)C(=O)O)N1CCOCC1 (stereo not drawn) [Example 2-253] | ≥ 1000 | < 100 | < 100 |  |  | 
16 | O=C(O)COc1cccc(C2CC2(NS(=O)(=O)c2ccc(-c3ccc(Cl)cc3)cc2)C(=O)O)c1 (stereo not drawn) [Example 1-119] | ≥ 1000 | < 100 | < 100 |  |  | 
17 | CS(=O)(=O)CC1(c2ccccc2)CC1(NS(=O)(=O)c1ccc(-c2ccc(Cl)cc2)s1)C(=O)O (stereo not drawn) [Example 2-440] |  |  |  | ≥ 10000 | < 1000 | < 1000
18 | O=C(O)C1(NS(=O)(=O)c2ccc(-c3ccc(Cl)cc3)s2)CC1C1CCCC1 (stereo not drawn) [Example 2-61] | ≥ 10000 | < 1000 | < 1000 |  |  | 
19 | C[C@]1(c2ccccc2)C[C@@]1(NS(=O)(=O)c1ccc(-c2ncc(F)cc2F)s1)C(=O)O [Example 2-466] |  |  |  | ≥ 1000 | ≥ 1000 | < 1000
20 | C[C@]1(c2ccccc2)C[C@@]1(NS(=O)(=O)c1ccc(-c2ccc3c(c2)OCCO3)s1)C(=O)O [Example 2-485] |  |  |  | ≥ 10000 | ≥ 1000 | < 1000

Row | SMILES | IC50 (MMP-1; [1]) [nM] | IC50 (Recombinant Human MMP-13; [2]) [nM] | IC50 (aggrecanase-1; [3]) [nM] | IC50 (MMP-1; [4]) [nM] | IC50 (Recombinant Human MMP-13; [5]) [nM] | IC50 (aggrecanase-1; [6]) [nM]
21 | CCC1(c2ccccc2)CC1(NS(=O)(=O)c1ccc(-c2ccc(Cl)cc2)s1)C(=O)O (stereo not drawn) [Example 2-129] | ≥ 10000 | < 1000 | < 1000 |  |  | 
22 | O=C(NCC1(c2ccccc2)CC1(NS(=O)(=O)c1ccc(-c2ccc(Cl)cc2)s1)C(=O)O)c1cccnc1 (stereo not drawn) [Example 2-394] |  |  |  | ≥ 1000 | < 100 | < 1000
23 | CC(C)C1(c2ccccc2)CC1(NS(=O)(=O)c1ccc(-c2ccc(Cl)cc2)s1)C(=O)O (stereo not drawn) [Example 2-123] | ≥ 10000 | < 1000 | < 1000 |  |  | 
24 | CN(C)c1cc(-c2ccc(S(=O)(=O)N[C@@]3(C(=O)O)C[C@]3(C)c3ccccc3)s2)ccc1Cl [Example 2-488] |  |  |  | ≥ 10000 | ≥ 1000 | ≥ 1000
25 | CCN(CC)CC1(c2ccccc2)CC1(NS(=O)(=O)c1ccc(-c2cc(C(F)(F)F)on2)s1)C(=O)O (stereo not drawn) [Example 2-343] |  |  |  | ≥ 10000 | ≥ 1000 | ≥ 1000
26 | O=C(O)C1(NS(=O)(=O)c2ccc(-c3ccc(Cl)cc3)cc2)CC1c1cccc(OCCN2CCOCC2)c1 (stereo not drawn) [Example 1-74] | ≥ 1000 | < 100 | < 1000 |  |  | 
27 | CC(=O)NCCCC1(c2ccccc2)CC1(NS(=O)(=O)c1ccc(-c2ccc(Cl)cc2)s1)C(=O)O (stereo not drawn) [Example 2-272] |  |  |  | ≥ 10000 | < 100 | < 100
28 | Cc1ncc(-c2ccc(S(=O)(=O)N[C@@]3(C(=O)O)C[C@@H]3c3ccccc3)s2)s1 [Example 2-55] | ≥ 10000 | ≥ 10000 | ≥ 1000 |  |  | 
29 | O=C(NCCO)OCC1(c2ccccc2)CC1(NS(=O)(=O)c1ccc(-c2cc(C(F)(F)F)on2)s1)C(=O)O (stereo not drawn) [Example 2-333] |  |  |  | ≥ 1000 | < 1000 | < 1000
30 | CN(C)C(=O)c1ccccc1C1CC1(NS(=O)(=O)c1ccc(-c2ccc(Cl)cc2)s1)C(=O)O (stereo not drawn) [Example 2-215] | ≥ 10000 | < 1000 | < 100 |  |  | 
31 | CN1CCN(C(=O)c2ccccc2C2CC2(NS(=O)(=O)c2ccc(-c3ccc(Cl)cc3)s2)C(=O)O)CC1 (stereo not drawn) [Example 2-216] | ≥ 10000 | < 1000 | < 1000 |  |  | 
32 | COc1ccc(-c2ccc(S(=O)(=O)N[C@@]3(C(=O)O)C[C@]3(C)c3ccccc3)s2)cc1Cl [Example 2-595] |  |  |  | ≥ 1000 | < 100 | ≥ 1000
33 | CC(C)(C)OC(=O)NCCCC1(c2ccccc2)CC1(NS(=O)(=O)c1ccc(-c2ccc(Cl)cc2)s1)C(=O)O (stereo not drawn) [Example 2-284] |  |  |  | ≥ 1000 | < 100 | < 100
34 | CC(=O)c1ccc(S(=O)(=O)NC2(C(=O)O)CC2c2ccccc2)s1 (stereo not drawn) [Example 2-66] | ≥ 10000 | ≥ 1000 | ≥ 1000 |  |  | 
35 | Cc1cc(N2CCN(S(=O)(=O)N[C@@]3(C(=O)O)C(C)[C@@H]3c3ccccc3)CC2)no1 (stereo partly drawn) [Example 2-475] |  |  |  | ≥ 10000 | ≥ 1000 | ≥ 1000
36 | CC1[C@H](c2ccccc2)[C@]1(NS(=O)(=O)N1Cc2ccc(Cl)cc2C1)C(=O)O (stereo partly drawn) [Example 2-538] |  |  |  | ≥ 1000 | < 1000 | ≥ 1000
37 | O=C(O)C1(NS(=O)(=O)c2ccc(-c3cc(C(F)(F)F)on3)s2)CC1c1cccc(NS(=O)(=O)N2CCOCC2)c1 (stereo not drawn) [Example 2-267] |  |  |  | ≥ 1000 | < 100 | < 100
38 | O=C(CCc1cccc(C2CC2(NS(=O)(=O)c2ccc(-c3cc(C(F)(F)F)on3)s2)C(=O)O)c1)N1CCOCC1 (stereo not drawn) [Example 2-234] | ≥ 1000 | < 100 | < 100 |  |  | 
39 | O=C(Cc1ccccc1C1CC1(NS(=O)(=O)c1ccc(-c2cc(C(F)(F)F)on2)s1)C(=O)O)N1CCOCC1 (stereo not drawn) [Example 2-243] | ≥ 1000 | < 100 | < 1000 |  |  | 
